Target: T1, CobL (Rhodobacter capsulatus, UniProt D5AV04)
T1 sequence (D5AV04 1-396): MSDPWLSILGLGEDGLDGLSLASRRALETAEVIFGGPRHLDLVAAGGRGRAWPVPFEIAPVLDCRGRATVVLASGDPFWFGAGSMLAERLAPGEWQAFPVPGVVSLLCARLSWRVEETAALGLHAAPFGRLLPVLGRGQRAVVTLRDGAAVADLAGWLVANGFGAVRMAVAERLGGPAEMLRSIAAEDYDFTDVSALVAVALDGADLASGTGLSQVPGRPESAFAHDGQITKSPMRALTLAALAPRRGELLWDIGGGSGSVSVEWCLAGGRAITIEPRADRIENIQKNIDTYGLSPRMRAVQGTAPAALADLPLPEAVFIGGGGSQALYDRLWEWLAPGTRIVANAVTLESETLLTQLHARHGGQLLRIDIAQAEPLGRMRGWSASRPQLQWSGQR
Assay: C5 alkylation coupled to CobH, UV-visible and HPLC-MS
Type: biochemical
Details: CobH 30 uM, pH 8.0, 28°C

SMILES	C5 alkylation coupled to CobH, UV-visible and HPLC-MS (precorrin-7 60 uM)	C5 alkylation coupled to CobH, UV-visible and HPLC-MS (allyl-SAM 170 uM)
C=CC[S+](CC[C@H](N)C(=O)O)C[C@H]1O[C@@H](n2cnc3c(N)ncnc32)[C@H](O)[C@@H]1O (some centres unmarked) [allyl-SAM]	When precorrin-7 was incubated with CobL, CobH, and allyl-SAM the color	–
CC1=C(CCC(=O)O)C2=N[C@@]1(C)CC1=C(CCC(=O)O)[C@](C)(CC(=O)O)C(=N1)/C=C1\N[C@@](C)([C@@H]3N=C(C2C)[C@](C)(CCC(=O)O)[C@H]3CC(=O)O)[C@@](C)(CC(=O)O)[C@@H]1CCC(=O)O (some centres unmarked) [precorrin-7]	–	When precorrin-7 was incubated with CobL, CobH, and allyl-SAM the color

— publication PMC6125784 (Cell chemical biology, 2018)
